Holding throughout (format): functional
Details in all cases: read-out: DIZ

Assay [1] concerns Helicobacter pylori. The experiment in a line: Antibacterial activity against metronidazole-resistant Helicobacter pylori at 8 ug/disk after 3 to 5 days by paper disk diffusion method.
In assay [2] the test system is Helicobacter pylori. The experiment in a line: Antibacterial activity against metronidazole-resistant Helicobacter pylori at 16 ug/disk after 3 to 5 days by paper disk diffusion method.
Assay [3] has as its system Helicobacter pylori. The experiment in a line: Antibacterial activity against Helicobacter pylori at 4 ug/disk after 3 to 5 days by paper disk diffusion method.
Assay [4] has as its system Helicobacter pylori. The experiment in a line: Antibacterial activity against Helicobacter pylori at 2 ug/disk after 3 to 5 days by paper disk diffusion method.
For assay [5], the system named is Helicobacter pylori. The experiment in a line: Antibacterial activity against metronidazole-sensitive Helicobacter pylori at 32 ug/disk after 3 to 5 days by paper disk diffusion method.
Assay [6] deals with Helicobacter pylori. The experiment in a line: Antibacterial activity against Helicobacter pylori at 32 ug/disk after 3 to 5 days by paper disk diffusion method.
In assay [7] the test system is Helicobacter pylori. The experiment in a line: Antibacterial activity against metronidazole-sensitive Helicobacter pylori at 8 ug/disk after 3 to 5 days by paper disk diffusion method.
The test system of assay [8] is Helicobacter pylori. The experiment in a line: Antibacterial activity against Helicobacter pylori at 1 ug/disk after 3 to 5 days by paper disk diffusion method.
Assay [9] concerns Helicobacter pylori. The experiment in a line: Antibacterial activity against metronidazole-resistant Helicobacter pylori at 32 ug/disk after 3 to 5 days by paper disk diffusion method.
The test system of assay [10] is Helicobacter pylori. The experiment in a line: Antibacterial activity against Helicobacter pylori at 0.5 ug/disk after 3 to 5 days by paper disk diffusion method.
Assay [11] deals with Helicobacter pylori. The experiment in a line: Antibacterial activity against Helicobacter pylori at 8 ug/disk after 3 to 5 days by paper disk diffusion method.
Assay [12] has as its system Helicobacter pylori. The experiment in a line: Antibacterial activity against metronidazole-sensitive Helicobacter pylori at 16 ug/disk after 3 to 5 days by paper disk diffusion method.
Assay [13] has as its system Helicobacter pylori. The experiment in a line: Antibacterial activity against Helicobacter pylori at 16 ug/disk after 3 to 5 days by paper disk diffusion method.

With `O=[N+]([O-])c1ccc(-c2nnc(SCc3ccccc3)s2)o1`, the zone of inhibition at 8 µg/disc in the assay with Helicobacter pylori [1] is 19 mm; in the assay on Helicobacter pylori [7] it was 18 mm; in the assay on Helicobacter pylori [11], 17.4 mm. Also, the zone of inhibition at 16 µg/disc with Helicobacter pylori [2] turned out to be 22 mm; in the assay on Helicobacter pylori [12], 22 mm; in the assay on Helicobacter pylori [13], 21 mm. Also, the zone of inhibition at 4 µg/disc with Helicobacter pylori [3] came to 14.7 mm. Also, in the assay with Helicobacter pylori [4], the zone of inhibition at 2 µg/disc is 12.1 mm. For the same compound, the zone of inhibition at 32 µg/disc turned out to be 25 mm in the assay with Helicobacter pylori [5], 24.1 mm in the assay with Helicobacter pylori [6] and 25 mm in the assay on Helicobacter pylori [9]. Also, in the assay on Helicobacter pylori [8], the zone of inhibition at 1 µg/disc is 9.6 mm. For the same compound, in the assay on Helicobacter pylori [10], the zone of inhibition at 0.5 µg/disc stood at 6.7 mm.
For the compound `O=[N+]([O-])c1ccc(-c2nnc(SCc3ccccc3Cl)s2)o1`, the figures for the zone of inhibition at 8 µg/disc in the assay on Helicobacter pylori [1], in the assay on Helicobacter pylori [7] and in the assay with Helicobacter pylori [11] were 18 mm, 19 mm and 17.1 mm, respectively. The zone of inhibition at 16 µg/disc in the assay on Helicobacter pylori [2] was found to be 20 mm; in the assay with Helicobacter pylori [12], 21 mm; in the assay on Helicobacter pylori [13] it was 18.9 mm. Moreover, the zone of inhibition at 4 µg/disc with Helicobacter pylori [3] stood at 11.3 mm. Also, the zone of inhibition at 2 µg/disc in the assay on Helicobacter pylori [4] was found to be 9.4 mm. For the same compound, the values for the zone of inhibition at 32 µg/disc with Helicobacter pylori [5], with Helicobacter pylori [6] and in the assay with Helicobacter pylori [9] were 21 mm, 21.4 mm and 22 mm, respectively. Moreover, the zone of inhibition at 1 µg/disc in the assay with Helicobacter pylori [8] was found to be 8.3 mm. Besides, in the assay on Helicobacter pylori [10], the zone of inhibition at 0.5 µg/disc is 6.8 mm.
Take `O=[N+]([O-])c1ccc(-c2nnc(SCc3cccc(Cl)c3)s2)o1`: the figures for the zone of inhibition at 8 µg/disc with Helicobacter pylori [1], in the assay on Helicobacter pylori [7] and in the assay on Helicobacter pylori [11] were 20 mm, 21 mm and 20.6 mm, respectively. Further, the zone of inhibition at 16 µg/disc in the assay with Helicobacter pylori [2] stood at 22 mm; with Helicobacter pylori [12], 25 mm; in the assay on Helicobacter pylori [13], 24.1 mm. Also, the zone of inhibition at 4 µg/disc in the assay with Helicobacter pylori [3] came to 18.4 mm. Besides, in the assay with Helicobacter pylori [4], the zone of inhibition at 2 µg/disc turned out to be 15.8 mm. For the same compound, the zone of inhibition at 32 µg/disc was 28 mm in the assay with Helicobacter pylori [5], 25.8 mm in the assay with Helicobacter pylori [6] and 25 mm in the assay with Helicobacter pylori [9]. Further, in the assay on Helicobacter pylori [8], the zone of inhibition at 1 µg/disc is 13.1 mm. Moreover, in the assay with Helicobacter pylori [10], the zone of inhibition at 0.5 µg/disc was determined as 10.3 mm.
As for `O=[N+]([O-])c1ccc(-c2nnc(SCc3ccc(Cl)cc3)s2)o1`, the zone of inhibition at 8 µg/disc in the assay on Helicobacter pylori [1] was determined as 16 mm; in the assay on Helicobacter pylori [7] it was 6 mm. Besides, the zone of inhibition at 16 µg/disc in the assay with Helicobacter pylori [2] was found to be 17 mm; with Helicobacter pylori [12] it was 16 mm. For the same compound, the zone of inhibition at 32 µg/disc is 19 mm in the assay on Helicobacter pylori [5] and 17 mm in the assay with Helicobacter pylori [9].
Consider `O=[N+]([O-])c1ccc(-c2nnc(SCc3ccc(Cl)cc3Cl)s2)o1`, for which the zone of inhibition at 8 µg/disc was 6 mm in the assay with Helicobacter pylori [1] and 13 mm with Helicobacter pylori [7]. Moreover, the zone of inhibition at 16 µg/disc amounted to 6 mm in the assay with Helicobacter pylori [2] and 15 mm in the assay with Helicobacter pylori [12]. For the same compound, the results for the zone of inhibition at 32 µg/disc with Helicobacter pylori [5] and in the assay on Helicobacter pylori [9] were 15 mm and 6 mm, respectively.
Regarding `O=[N+]([O-])c1ccc(-c2nnc(SCc3ccc(Cl)c(Cl)c3)s2)o1`, the values for the zone of inhibition at 8 µg/disc in the assay on Helicobacter pylori [1] and in the assay with Helicobacter pylori [7] were 6 mm and 11 mm, respectively. Besides, the zone of inhibition at 16 µg/disc in the assay on Helicobacter pylori [2] came to 6 mm; in the assay on Helicobacter pylori [12], 13 mm. Moreover, the zone of inhibition at 32 µg/disc in the assay with Helicobacter pylori [5] stood at 15 mm; in the assay with Helicobacter pylori [9], 12 mm.
As to `O=[N+]([O-])c1ccc(-c2nnc(SCc3cccc(Cl)c3Cl)s2)o1`, the zone of inhibition at 8 µg/disc is 6 mm in the assay with Helicobacter pylori [1] and 15 mm in the assay with Helicobacter pylori [7]. For the same compound, the zone of inhibition at 16 µg/disc in the assay with Helicobacter pylori [2] worked out at 6 mm; in the assay on Helicobacter pylori [12], 16 mm. Further, the results for the zone of inhibition at 32 µg/disc in the assay with Helicobacter pylori [5] and with Helicobacter pylori [9] were 16 mm and 17 mm, respectively.
For the compound `O=[N+]([O-])c1ccc(-c2nnc(SCc3c(Cl)cccc3Cl)s2)o1`, the values for the zone of inhibition at 8 µg/disc in the assay with Helicobacter pylori [1], in the assay with Helicobacter pylori [7] and in the assay on Helicobacter pylori [11] were 20 mm, 21 mm and 19.4 mm, respectively. The zone of inhibition at 16 µg/disc is 21 mm with Helicobacter pylori [2], 23 mm in the assay with Helicobacter pylori [12] and 21.9 mm in the assay with Helicobacter pylori [13]. Further, the zone of inhibition at 4 µg/disc in the assay on Helicobacter pylori [3] amounted to 15.2 mm. Moreover, in the assay on Helicobacter pylori [4], the zone of inhibition at 2 µg/disc is 13.1 mm. In addition, the zone of inhibition at 32 µg/disc turned out to be 26 mm with Helicobacter pylori [5], 23.7 mm in the assay with Helicobacter pylori [6] and 24 mm in the assay with Helicobacter pylori [9]. Also, in the assay with Helicobacter pylori [8], the zone of inhibition at 1 µg/disc came to 10.9 mm. For the same compound, the zone of inhibition at 0.5 µg/disc in the assay on Helicobacter pylori [10] was 8.7 mm.
For the compound `CC1(C)S[C@@H]2[C@H](NC(=O)[C@H](N)c3ccc(O)cc3)C(=O)N2[C@H]1C(=O)O` [AMOXICILLIN], in the assay on Helicobacter pylori [8], the zone of inhibition at 1 µg/disc was 24.5 mm.
With `Cc1ncc([N+](=O)[O-])n1CCO` [METRONIDAZOLE], in the assay on Helicobacter pylori [11], the zone of inhibition at 8 µg/disc turned out to be 16.3 mm.

Source of the values: ChEMBL document CHEMBL3044827, “Synthesis and in vitro anti-Helicobacter pylori activity of 2-[(chlorobenzyl)thio]-5-(5-nitro-2-furyl)-1,3,4-thiadiazoles” (2008).
